Holding throughout (assay type): functional
Test [1] can be described thus: Effect of compound on elevation of cAMP levels induced by 2 uM PGE1 at 100 uM. (In general: Cyclic AMP is a second messenger, typically raised through Gs and lowered through Gi signalling.)
Test [2] in a line: Effect of compound on elevation of cAMP levels induced by 2 uM PGE1 at 1 uM.
A short description of test [3]: Platelet shape change and aggregation induced by the compound at 10 uM concentration.
Test [4] is described as follows: Effect of compound at 100 uM on platelet aggregation induced by 10 uM ADP.
Test [5] in a line: Effect of compound on elevation of cAMP levels induced by 2 uM PGE1 at 10 uM.
A short description of test [6]: Effect of compound at 1 uM on platelet aggregation induced by 10 uM ADP.
A short description of test [7]: Effect of compound at 10 uM on platelet aggregation induced by 10 uM ADP.
A short description of test [8]: Platelet shape change and aggregation induced by the compound at 100 uM concentration.
Test [9] is described as follows: Platelet shape change and aggregation induced by the compound at 1 uM concentration.
Test [10] is described as follows: Inhibitory effect of ADP (10 uM) on PGE1 (2 uM)-induced increase in platelet cAMP levels at 100 uM concentration of compound.
Test [11] can be described thus: Effect of compound at 800 uM on platelet aggregation induced by 10 uM ADP.
Test [12] can be described thus: Inhibitory effect of ADP (10 uM) on PGE1 (2 uM)-induced increase in platelet cAMP levels at 10 uM concentration of compound.
Test [13] can be described thus: Inhibitory effect of ADP (10 uM) on PGE1 (2 uM)-induced increase in platelet cAMP levels at 800 uM concentration of compound.
A short description of test [14]: Inhibitory effect of ADP (10 uM) on PGE1 (2 uM)-induced increase in platelet cAMP levels at 1 uM concentration of compound.
Test [15] can be described thus: Inhibitory concentration of compound on platelet aggregation.

These results are taken from ChEMBL document CHEMBL1143589, “Effects of 5'-phosphate derivatives of 2-hexynyl adenosine and 2-phenylethynyl adenosine on responses of human platelets mediated by P2Y receptors” (J Med Chem, 2005).

The structures appear in SMILES notation.

For `CCCCC#Cc1nc(N)c2ncn(C3O[C@H](COP(=O)(O)OP(=O)(O)O)[C@@H](O)[C@H]3O)c2n1` (stereo partly specified), the Activity in [1] stood at 38; in test [2] it was 58; in test [4], 100; in test [5], 50; in test [6], 98; in test [7], 99. Moreover, the Light transmission in [3] is on record as 17%; in test [8] it was 41%; in test [9], 0%.
Consider `Nc1nc(C#Cc2ccccc2)nc2c1ncn2[C@@H]1O[C@H](COP(=O)(O)OP(=O)(O)OP(=O)(O)O)[C@@H](O)[C@H]1O`, for which the Inhibition was 5.7% in test [10], 1.6% in test [12], 68.9% in test [13] and 1.6% in test [14]. Also, the Activity in test [11] is given as 0.2; in test [4], 46.6; in test [6], 81; in test [7] it was 81.6. The molecule also displayed an IC50 in test [15] of 85 µM.
In the case of `CCCCC#Cc1nc(N)c2ncn(C3O[C@H](COP(=O)(O)OP(=O)(O)OP(=O)(O)O)[C@@H](O)[C@H]3O)c2n1` (stereo partly specified), the Activity was 27 in test [1]; 59 in test [2]; 64 in [4]; 35 in [5]; 92 in test [6]; 90 in [7]. The Light transmission in [3] stood at 9%; in [8], 39%; in test [9], 0%.
Take `Nc1nc(C#Cc2ccccc2)nc2c1ncn2C1O[C@H](COP(=O)(O)OP(=O)(O)O)[C@@H](O)[C@H]1O` (stereo partly specified): the Inhibition in test [10] is recorded as 4.1%; in test [12], 2.6%; in test [13] it was 29.5%; in [14], 1%. Besides, the Activity in [11] was determined as 9.5; in test [4] it was 43.2; in [6], 81.5; in test [7] it was 77.4. Moreover, in test [15], half-maximal inhibition (IC50) was put at 60 µM.
On to `Nc1nc(C#Cc2ccccc2)nc2c1ncn2C1O[C@H](COP(=O)(O)O)[C@@H](O)[C@H]1O` (stereo partly specified), for which the Inhibition was 14.9% in test [10], 4.1% in [12], 74.4% in test [13] and 4.6% in test [14]. In addition, the Activity is 0.2 in [11], 58.4 in test [4], 86 in [6] and 92.8 in [7]. For the same molecule, the half-inhibitory concentration (IC50) in test [15] was found to be 130 µM.
Take `Nc1ncnc2c1ncn2[C@@H]1O[C@H](COP(=O)(O)OP(=O)(O)O)[C@@H](O)[C@H]1O` [ADENOSINE DIPHOSPHATE]: the Light transmission in test [3] was found to be 53%. In addition, the Activity in [5] stood at 34.
For `CCCCC#Cc1nc(N)c2ncn(C3O[C@H](COP(=O)(O)O)[C@@H](O)[C@H]3O)c2n1` (stereo partly specified), the Inhibition stood at 13.6% in [10], 9.6% in test [12], 58.2% in test [13] and 6.7% in test [14]. For the same molecule, the Activity in test [11] stood at 0; in test [4] it was 11.8; in [6] it was 75.2; in test [7], 54.4. Also, half-maximal inhibition in test [15] (IC50) was put at 14 µM.

Usually Inhibition stands for the share of the control response that was lost under treatment. Read a low Inhibition as little suppression. A word on the IC50: it is the concentration that inhibits the measured activity by half.
